Measurements as given in patent US10399948B2, “Negative allosteric modulators of metabotropic glutamate receptor 3” (Vanderbilt University, priority 2015, dated 2019).
Read-outs that look alike come from different tables or passages of the source.

How the values were obtained:
[1] = test system: Helpless (H) mice; settings: cited from earlier work; for activity in the tail suspension test: Helpless (H) mice
[2] = test system: central mGlu2 and mGlu3 receptors; settings: in vivo; cited from earlier work
[3] = test system: C57Bl6/J mice; settings: FST; cited from earlier work
[4] = test system: schizophrenic patients; settings: compared to placebo, P<0.001 at week 4; cited from earlier work
[5] = test system: Aβ-induced neurodegeneration; settings: cited from earlier work
[6] = cited from earlier work
[7] = test system: olfactory bulbectomized rats; settings: repeated administration for 14 days; cited from earlier work
[8] = test system: rat; settings: normal animals; cited from earlier work
[9] = in vivo; cited from earlier work
[10] = test system: social isolation-reared mice; settings: cited from earlier work
[11] = test system: mouse; settings: normal animals; cited from earlier work
[12] = test system: mice; settings: cited from earlier work
[13] = test system: group II mGlu receptors (mGlu2 and mGlu3); settings: cited from earlier work
[14] = target: rat mGlu5 (Rattus norvegicus (Rat), UniProt P31424); assay: mGlu5 Ca2+ flux assay; format: cell-based; settings: for activity at 30 µM: response at 30 μM test compound as percentage of maximal response to glutamate, read-out: rat mGlu5 Glu max (%)
rat mGlu5, sequence (P31424 21-1203): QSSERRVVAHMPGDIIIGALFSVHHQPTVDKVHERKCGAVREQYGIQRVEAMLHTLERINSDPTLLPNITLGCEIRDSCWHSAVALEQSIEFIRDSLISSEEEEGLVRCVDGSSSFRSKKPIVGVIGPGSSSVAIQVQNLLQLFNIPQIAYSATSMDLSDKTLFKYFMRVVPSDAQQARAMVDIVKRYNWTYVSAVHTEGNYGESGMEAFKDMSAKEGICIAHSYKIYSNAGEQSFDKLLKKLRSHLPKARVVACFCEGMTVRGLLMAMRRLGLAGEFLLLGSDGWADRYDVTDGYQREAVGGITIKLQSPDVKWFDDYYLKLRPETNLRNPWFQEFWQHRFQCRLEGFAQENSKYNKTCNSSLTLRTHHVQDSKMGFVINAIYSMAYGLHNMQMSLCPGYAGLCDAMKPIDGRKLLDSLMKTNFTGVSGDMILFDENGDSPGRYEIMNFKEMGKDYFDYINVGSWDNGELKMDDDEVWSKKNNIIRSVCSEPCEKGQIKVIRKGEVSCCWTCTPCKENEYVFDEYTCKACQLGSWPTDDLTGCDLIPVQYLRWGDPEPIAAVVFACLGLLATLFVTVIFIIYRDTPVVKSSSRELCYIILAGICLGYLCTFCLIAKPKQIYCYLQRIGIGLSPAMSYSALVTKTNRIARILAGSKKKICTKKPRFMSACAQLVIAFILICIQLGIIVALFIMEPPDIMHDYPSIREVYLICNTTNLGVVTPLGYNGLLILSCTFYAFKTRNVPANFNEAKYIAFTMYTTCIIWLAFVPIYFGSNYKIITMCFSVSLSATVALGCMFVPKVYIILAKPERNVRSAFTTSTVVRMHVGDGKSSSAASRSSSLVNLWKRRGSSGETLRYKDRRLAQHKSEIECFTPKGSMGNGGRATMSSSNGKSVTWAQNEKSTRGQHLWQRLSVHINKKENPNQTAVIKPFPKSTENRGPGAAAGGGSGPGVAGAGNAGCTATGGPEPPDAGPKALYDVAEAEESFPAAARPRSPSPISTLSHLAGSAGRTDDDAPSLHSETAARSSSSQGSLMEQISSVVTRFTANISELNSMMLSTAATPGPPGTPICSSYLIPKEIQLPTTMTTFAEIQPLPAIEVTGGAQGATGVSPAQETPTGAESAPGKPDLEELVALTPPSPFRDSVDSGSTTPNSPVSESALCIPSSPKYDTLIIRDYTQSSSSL
Method: HEK 293A cells stably expressing rat mGlu5 were plated in black-walled, clear-bottomed, poly-D-lysine coated 384-well plates in 20 μL of assay medium (DMEM containing 10% dialyzed FBS, 20 mM HEPES, 100 units/mL penicillin/streptomycin plus 250 ng/mL Fungizone, and 1 mM sodium pyruvate) at a density of 20K cells/well. The cells were grown overnight at 37° C. in the presence of 5% CO2. The next day, medium was removed and the cells incubated with 20 μL of […] Fluo-4, AM prepared as a 2.3 mM stock in DMSO and mixed in a 1:1 ratio with 10% (w/v) pluronic acid F-127 and diluted in assay buffer (Hank's balanced salt solution, 20 mM HEPES, and 2.5 mM probenecid) for 45 minutes at 37° C. Dye was removed, 20 μL of assay buffer was added, and the plate was incubated for 5 minutes at room temperature.
Ca^2+ flux was measured using the Functional Drug Screening System (FDSS7000, Hamamatsu, Japan). After establishment of a fluorescence baseline for about 3 seconds, the compounds of the present invention were added to the cells, and the response in cells was measured. 2.3 minutes later an EC20 concentration of the mGlu5 receptor agonist glutamate was added to the cells, and the response of the cells was measured for 1.9 minutes; an EC80 concentration of agonist was added and readings taken for an additional 1.7 minutes. All test compounds were dissolved and diluted to a concentration of 10 mM in 100% DMSO. Compounds were then serially diluted 1:3 in DMSO into 10 point concentration response curves, transferred to daughter plates, and further diluted into assay buffer to a 2× stock. Calcium fluorescence measures were recorded as fold over basal fluorescence; raw data was then normalized to the maximal response to glutamate.
The raw data file containing all time points was used as the data source in the analysis template. This was saved by the FDSS as a tab-delimited text file. Data were normalized using a static ratio function (F/F0) for each measurement of the total 360 values per well divided by each well's initial value. Data were then reduced to peak amplitudes (Max−Initial Min) using a time range that starts approximately 3 seconds prior to the glutamate EC20/EC80 addition and continues for approximately 90-120 seconds. This is sufficient time to capture the peak amplitude of the cellular calcium response. Individual amplitudes were expressed as % EMax by multiplying each amplitude by 100 and then dividing the product by the mean of the amplitudes derived from the glutamate ECMax-treated wells. EC50 values for test compounds were generated by fitting the normalized values versus the log of the test compound concentration (in mol/L) using a 4 parameter logistic equation where none of the parameters were fixed. Each of the three values collected at each concentration of test compound were weighted evenly.

[15] = target: rat mGlu3 (Rattus norvegicus (Rat), UniProt P31422); assay: mGlu3 Ca2+ flux assay; format: cell-based; settings: for IC50: NAM, glutamate EC80, >10,000 = decrease without plateau, >30,000 = no measurable activity; for remaining activity at 30 µM: response at 30 μM test compound as percentage of maximal response to glutamate, read-out: rat mGlu3 Glu max (%)
rat mGlu3, sequence (P31422 23-879): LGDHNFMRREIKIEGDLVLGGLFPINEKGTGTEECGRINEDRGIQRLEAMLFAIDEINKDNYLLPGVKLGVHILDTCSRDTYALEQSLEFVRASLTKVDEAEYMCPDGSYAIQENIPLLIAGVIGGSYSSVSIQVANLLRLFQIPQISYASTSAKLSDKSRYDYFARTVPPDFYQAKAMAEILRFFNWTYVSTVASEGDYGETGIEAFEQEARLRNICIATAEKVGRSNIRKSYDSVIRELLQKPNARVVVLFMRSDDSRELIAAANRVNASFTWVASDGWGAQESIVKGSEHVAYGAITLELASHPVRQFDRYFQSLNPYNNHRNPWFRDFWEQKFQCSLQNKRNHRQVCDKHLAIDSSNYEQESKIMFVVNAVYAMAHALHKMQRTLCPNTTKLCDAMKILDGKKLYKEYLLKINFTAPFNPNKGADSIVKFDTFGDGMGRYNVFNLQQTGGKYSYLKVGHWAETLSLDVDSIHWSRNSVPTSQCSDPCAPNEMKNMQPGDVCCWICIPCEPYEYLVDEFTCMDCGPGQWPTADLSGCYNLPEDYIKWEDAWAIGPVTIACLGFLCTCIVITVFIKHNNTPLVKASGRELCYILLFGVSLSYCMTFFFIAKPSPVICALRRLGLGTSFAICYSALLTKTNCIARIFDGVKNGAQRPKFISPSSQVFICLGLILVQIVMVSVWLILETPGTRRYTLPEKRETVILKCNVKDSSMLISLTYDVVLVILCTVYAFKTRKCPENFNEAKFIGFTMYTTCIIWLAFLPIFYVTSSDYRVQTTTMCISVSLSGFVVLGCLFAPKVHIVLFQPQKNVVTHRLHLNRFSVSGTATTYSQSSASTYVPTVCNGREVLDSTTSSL

[16] = target: rat mGlu2 (Rattus norvegicus (Rat), UniProt P31421); assay: mGlu2 Ca2+ flux assay; format: cell-based; settings: NAM, glutamate EC80; >30,000 = no measurable activity
rat mGlu2, sequence (P31421 19-872): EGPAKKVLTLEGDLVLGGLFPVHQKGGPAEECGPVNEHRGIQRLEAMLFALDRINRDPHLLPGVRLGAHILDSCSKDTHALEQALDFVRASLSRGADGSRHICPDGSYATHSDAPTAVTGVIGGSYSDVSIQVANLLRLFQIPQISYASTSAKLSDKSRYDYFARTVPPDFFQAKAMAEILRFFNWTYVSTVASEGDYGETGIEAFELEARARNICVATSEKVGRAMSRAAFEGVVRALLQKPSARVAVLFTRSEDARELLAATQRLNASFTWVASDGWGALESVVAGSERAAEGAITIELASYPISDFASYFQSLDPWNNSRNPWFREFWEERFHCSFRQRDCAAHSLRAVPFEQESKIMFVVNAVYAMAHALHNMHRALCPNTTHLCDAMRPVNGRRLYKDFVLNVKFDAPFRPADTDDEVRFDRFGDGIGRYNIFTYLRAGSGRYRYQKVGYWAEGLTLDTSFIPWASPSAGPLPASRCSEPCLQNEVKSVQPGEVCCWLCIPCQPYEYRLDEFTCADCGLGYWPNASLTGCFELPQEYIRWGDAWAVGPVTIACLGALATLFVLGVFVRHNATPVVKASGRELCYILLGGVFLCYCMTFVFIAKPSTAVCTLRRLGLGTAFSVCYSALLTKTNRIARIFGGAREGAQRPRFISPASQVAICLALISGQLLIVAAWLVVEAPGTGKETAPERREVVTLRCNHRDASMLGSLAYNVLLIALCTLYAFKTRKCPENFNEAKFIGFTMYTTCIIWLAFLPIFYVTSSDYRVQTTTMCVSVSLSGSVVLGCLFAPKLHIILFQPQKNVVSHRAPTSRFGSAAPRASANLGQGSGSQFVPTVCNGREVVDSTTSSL

[17] = test system: glioma stem cells (GSC) tumors; settings: compared with controls; cited from earlier work
[18] = test system: glioma stem cells (GSC); settings: in vitro; cited from earlier work
[19] = PAM, glutamate EC20, >10,000 = no plateau, >30,000 = no measurable activity, read-out: rat mGlu5 EC50 or IC50

CNCCC(Oc1ccc(C(F)(F)F)cc1)c1ccccc1 (stereo not shown) [fluoxetine]
antidepressant effect in helpless mice ([1]; chronic (21 days) treatment): full antidepressant effect

Cc1cc(-c2cccc(C3=Nc4cc(C)c(C(F)(F)F)cc4NC(=O)C3)c2)cc(C)n1 [RO4491533]
activity in the tail suspension test [1]: active | hypolocomotor effect of mGlu2/3 agonist LY379268 [2]: reversed | immobility time [3]: dose-dependently reduced

N[C@@]1(C(=O)O)CS(=O)(=O)[C@H]2[C@H](C(=O)O)[C@H]21 [LY404039]
positive and negative symptoms of schizophrenia [4]: statistically significant improvements

CCS(=O)(=O)N(Cc1cccnc1)c1cccc(-c2ccc(C#N)cc2)c1 [LY566332]
Aβ-induced neurodegeneration [5]: amplified

N[C@]1(C(=O)O)[C@H]2[C@@H](C[C@H]1OCc1ccc(Cl)c(Cl)c1)[C@]2(F)C(=O)O [MGS0039]
antidepressant effects ([6]; learned helplessness test/paradigm): antidepressant effects | number of escape failures ([6]; treatment for 7 days): significantly reduced | hyperactivity in the open field test [7]: attenuated | learning deficit in the passive avoidance test [7]: attenuated | antidepressant-like effects [8]: Antidepressant-like effects | freezing behavior [9]: significantly decreased | increased immobility in the FST [10]: reversed | antidepressant-like effects [11]: Antidepressant-like effects | marble-burying behavior [12]: reduced marble-burying behavior in a significant and dose dependent manner | spontaneous locomotor activity [12]: no significant change

CCCCCCCOC(=O)[C@@]1(F)[C@@H]2C[C@@H](OCc3ccc(Cl)c(Cl)c3)[C@@](N)(C(=O)O)[C@@H]21 [BCI-838]
duration of inhibition of group II mGlu receptors ([13]; once-daily oral dosing, brain concentration of active metabolite BCI-632): 22 h | Dutch APP transgene-associated learning and memory impairment ([13]; three months of treatment): reversed | anxiolytic effects ([13]; three months of treatment): anxiolytic effects | levels of monomeric and oAβ peptides in the hippocampus and cortex ([13]; three months of treatment): decreased | hippocampal progenitor cell proliferation ([13]; wild-type and Alzheimer's diseased mice, 3 months): stimulated

CN1C(=O)CN=C(c2ccccc2)c2cc(Cl)ccc21 [diazepam]
freezing behavior [9]: significantly decreased

O=c1nc(OCCOc2ccccc2)ccn1-c1ccc(F)cc1 [Compound 17, 1-(4-Fluorophenyl)-4-(2-phenoxyethoxy)pyrimidin-2(1H)-one]
EC50 [14, 19]: 1.19 µM | activity at 30 µM ([14]; PAM): 96.8% | IC50 [15]: 0.211 µM | remaining activity at 30 µM [15]: 1.84% | IC50 [16]: > 30 µM

N[C@](CC1c2ccccc2Oc2ccccc21)(C(=O)O)[C@H]1C[C@@H]1C(=O)O [LY341495]
growth rate and volume of tumors [17]: reduced | antidepressant-like effects [8]: Antidepressant-like effects | amplification of Aβ-induced neurodegeneration by LY566332 [5]: prevented | activity in the tail suspension test [1]: active | antidepressant effect in helpless mice ([1]; acute administration): potent antidepressant effect | proliferation rates and proportion of cells in S phase [18]: decreased in a time-dependent manner | hypolocomotor effect of mGlu2/3 agonist LY379268 [2]: achieved the same result | antidepressant-like effects [11]: Antidepressant-like effects | marble-burying behavior [12]: significantly reduce | immobility time [3]: dose-dependently reduced

O=c1cc(OCCOc2ccc(F)nc2)ccn1-c1ccc(F)cc1 [Compound 45, 1-(4-fluorophenyl)-4-(2-((6-fluoropyridin-3-yl)oxy)ethoxy)pyridin-2(1H)-one]
EC50 [14, 19]: > 10 µM | activity at 30 µM ([14]; PAM): 35.5% | IC50 [15]: 0.701 µM | remaining activity at 30 µM [15]: 0.88% | IC50 [16]: > 30 µM

O=c1cc(OCCOc2ccccc2)ccn1-c1ccc(F)cc1 [Compound 18, 1-(4-Fluorophenyl)-4-(2-phenoxyethoxy)pyridin-2(1H)-one]
EC50 [14]: 0.567 µM | activity at 30 µM ([14]; PAM): 97.3% | IC50 [15]: 0.725 ± 0.227 µM | remaining activity at 30 µM [15]: 1.45 ± 0.14% | IC50 [16]: > 30 µM

O=c1nc(OCCOc2ccccc2)ccn1-c1cccc(F)c1 [Compound 14, 1-(3-fluorophenyl)-4-(2-phenoxyethoxy)pyrimidin-2(1H)-one]
EC50 [14, 19]: 3.54 µM | activity at 30 µM ([14]; PAM): 77.5% | IC50 [15]: 0.296 µM | remaining activity at 30 µM [15]: 1.61% | IC50 [16]: > 30 µM
